For test [1], the system named is Brachypodium distachyon DHS enzymes (BdDHS1a, BdDHS1b, BdDHS2). The test is described as follows: DHS activity: kinetics and effector inhibition, three isoforms together. In kind it is biochemical. To be noted: arogenate treated with 1N HCl for 30 minutes (FIG. 16A). An excerpt: (§1) To examine their functional properties, the recombinant DHS enzymes of Brachypodium were produced and characterized in vitro.
(§2) As recent studies have shown that plant DHS enzymes are feedback-inhibited by multiple effector molecules^15, 16, we tested the effect of AAAs and another 14 related metabolites, including various intermediates of the shikimate pathway and the pathways downstream of AAAs, on Brachypodium DHS enzymes.
(§3) The DHS assay for UHPLC-MS quantification was set up using the same settings as described in the previous paragraph for the UV-based DHS assay, which guaranteed at least 10 minutes of reaction linearity. After a 10-minute incubation, 20 μL of the reactions (out of a total volume of 50 μL) were mixed into 80 μL of methanol, vortexed and transferred to vials for injection. Analysis of DAHP by UHPLC-MS was conducted using the same chromatographic settings as described for the UHPLC-MS analysis of soluble metabolites and compared with an authentic DAHP standard (Sta. Cruz biotechnology, cat. no. sc-216432).

In test [2] the target is Arabidopsis thaliana AtDHS2 (Arabidopsis thaliana, UniProt Q00218). The experiment in a line: DHS inhibition assay with hydrolyzed arogenate. In kind it is biochemical. To be noted: arogenate treated with 1N HCl for 30 minutes (FIG. 16A).
Protocol: All DHS effectors tested were included in the initial reaction mixtures at a concentration of 0.5 mM, except for IC50 determination for arogenate and tryptophan, in which variable concentrations were used. To ensure at least 10 minutes of linear reaction, enzyme mass per reaction was carefully adjusted to between 100 to 300 ng (depending on the specific activity of each specific isoform) using DHS storage buffer supplemented with BSA. […] The enzymatic reaction was started with the addition of E4P (variable concentration, see below).
The target in test [3] is T1, Brachypodium distachyon BdTyrAnc (non-canonical TyrA), SEQ ID NO: 37, recombinant (Brachypodium distachyon, UniProt I1GYB3).
T1 construct: from cDNA
T1 sequence (I1GYB3 58-361): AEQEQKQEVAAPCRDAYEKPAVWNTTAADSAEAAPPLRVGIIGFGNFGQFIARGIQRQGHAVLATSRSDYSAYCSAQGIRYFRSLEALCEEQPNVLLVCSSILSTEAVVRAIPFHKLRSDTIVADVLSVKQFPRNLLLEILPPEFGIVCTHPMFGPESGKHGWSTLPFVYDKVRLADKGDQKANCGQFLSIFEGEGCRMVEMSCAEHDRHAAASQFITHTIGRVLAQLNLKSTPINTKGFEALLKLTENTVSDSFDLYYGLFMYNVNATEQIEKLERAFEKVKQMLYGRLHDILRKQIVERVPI
The test is described as follows: TyrA arogenate dehydrogenase kinetics and tyrosine inhibition (340 nm). In kind it is biochemical. Particulars: arogenate and NADP^+. An excerpt:
(§4) Next, to study the biochemical properties of grass TyrA enzymes, we generated and characterized recombinant purified TyrA proteins from Brachypodium (BdTyrA) and Sorghum (SbTyrA), two distantly related grass species^43, 44. Whereas TyrA enzymes from dicot plants are generally NADP^+-dependent arogenate dehydrogenases^20, 39, 45, except for NADP^+-prephenate dehydrogenases in the legume family^40, 46, previous reports on the substrate preference of grass TyrA enzymes are inconclusive^17, 19. […] NAD^+-prephenate dehydrogenase activity was absent in all cases, ruling out a significant contamination of the enzyme preparations with the TyrA enzyme from E. coli^47.48.

Test [4] addresses T2, Sorghum bicolor SbTyrAnc (non-canonical TyrA), SEQ ID NO: 43, recombinant (Sorghum bicolor, UniProt C5Z447).
T2 construct: from cDNA
T2 sequence (C5Z447 56-382): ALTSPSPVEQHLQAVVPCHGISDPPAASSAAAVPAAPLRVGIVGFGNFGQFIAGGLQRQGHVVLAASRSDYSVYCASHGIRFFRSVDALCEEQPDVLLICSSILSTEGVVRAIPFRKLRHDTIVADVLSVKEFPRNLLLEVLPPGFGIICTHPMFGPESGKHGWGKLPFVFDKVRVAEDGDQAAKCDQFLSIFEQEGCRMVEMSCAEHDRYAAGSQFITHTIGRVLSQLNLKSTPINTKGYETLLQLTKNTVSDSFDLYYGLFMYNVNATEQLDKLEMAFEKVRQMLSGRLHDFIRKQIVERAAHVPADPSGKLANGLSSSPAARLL
The description is as above. In kind it is biochemical. Particulars: arogenate and NADP^+.
From the text: as §4

Test [5] addresses Brachypodium distachyon BdDHS1a, SEQ ID NO: 1, recombinant (Brachypodium distachyon, UniProt I1GSB3). The test is described as follows: DHS activity: kinetics and effector inhibition.
From the text: as §1, §2, §3

In test [6] the target is Brachypodium distachyon BdDHS1b, SEQ ID NO: 3, recombinant (Brachypodium distachyon, UniProt I1H4W3). The experiment in a line: DHS activity: kinetics and effector inhibition. In kind it is biochemical.
From the text: as §1, §2, §3

Test [7] concerns the target Brachypodium distachyon BdDHS2, SEQ ID NO: 5, recombinant (Brachypodium distachyon, UniProt I1I809). The test is described as follows: DHS activity: kinetics and effector inhibition. In kind it is biochemical.
From the text: as §1, §2, §3

Test [8] concerns the target Sorghum bicolor SbDHS1a, SEQ ID NO: 9, recombinant (Sorghum bicolor, UniProt C5X2H5). The experiment in a line: DHS activity: effector inhibition. In kind it is biochemical. Particulars: effector 0.5 mM. The procedure: (§5) In contrast, BdDHS1b was not inhibited by arogenate even up to 2.5 mM. In fact, DHS1b activity increased in the presence of high concentrations of arogenate (FIG. 4F), likely due to high concentrations of contaminant NaCl present in the arogenate preparation (FIG. 16). Under acidic conditions, arogenate is known to undergo a spontaneous dehydration and decarboxylation into […]. […] Like in Brachypodium DHS enzymes, 0.5 mM arogenate inhibited SbDHS1a and SbDHS2 at ˜50% and ˜40%, respectively, but had no effect on SbDHS1b.

Test [9] addresses Sorghum bicolor SbDHS1b, SEQ ID NO: 11, recombinant (Sorghum bicolor, UniProt C5WXQ3). The experiment in a line: DHS activity: effector inhibition. Particulars: effector 0.5 mM. In kind it is biochemical. The procedure:
as §5

The target of test [10] is T3, Sorghum bicolor SbDHS2, SEQ ID NO: 13, recombinant (Sorghum bicolor, UniProt C5YJQ4).
T3 construct: pET28a (NdeI/BamHI), E. coli KRX
The experiment in a line: DHS activity: effector inhibition. In kind it is biochemical. To be noted: effector 0.5 mM. The procedure:
as §5

The structures appear in SMILES notation. Where “and” joins values, the source holds several entries; their conditions need not be identical. Equal values may be shown once. Where a name gives a salt, the structure may show the parent alone.

Usually kcat/Km stands for the turnover number divided by the Michaelis constant. One may read the IC50 as the concentration that inhibits the measured activity by half. Usually inhibition stands for how much of the control response was suppressed.

Chain of Brachypodium distachyon BdDHS1a, SEQ ID NO: 1, recombinant (I1GSB3 46-537): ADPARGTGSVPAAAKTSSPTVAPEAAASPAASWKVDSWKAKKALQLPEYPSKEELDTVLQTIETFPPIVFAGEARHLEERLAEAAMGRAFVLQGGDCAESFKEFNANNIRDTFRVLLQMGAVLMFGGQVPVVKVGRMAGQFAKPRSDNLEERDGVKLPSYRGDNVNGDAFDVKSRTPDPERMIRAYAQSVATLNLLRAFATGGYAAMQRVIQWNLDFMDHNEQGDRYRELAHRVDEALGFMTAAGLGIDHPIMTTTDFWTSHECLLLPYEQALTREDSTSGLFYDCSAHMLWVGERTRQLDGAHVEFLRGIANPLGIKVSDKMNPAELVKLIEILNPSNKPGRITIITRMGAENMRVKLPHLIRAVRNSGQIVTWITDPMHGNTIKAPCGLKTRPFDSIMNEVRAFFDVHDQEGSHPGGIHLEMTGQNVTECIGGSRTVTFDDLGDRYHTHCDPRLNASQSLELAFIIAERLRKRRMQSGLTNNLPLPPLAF
Chain of Brachypodium distachyon BdDHS2, SEQ ID NO: 5, recombinant (I1I809 31-503): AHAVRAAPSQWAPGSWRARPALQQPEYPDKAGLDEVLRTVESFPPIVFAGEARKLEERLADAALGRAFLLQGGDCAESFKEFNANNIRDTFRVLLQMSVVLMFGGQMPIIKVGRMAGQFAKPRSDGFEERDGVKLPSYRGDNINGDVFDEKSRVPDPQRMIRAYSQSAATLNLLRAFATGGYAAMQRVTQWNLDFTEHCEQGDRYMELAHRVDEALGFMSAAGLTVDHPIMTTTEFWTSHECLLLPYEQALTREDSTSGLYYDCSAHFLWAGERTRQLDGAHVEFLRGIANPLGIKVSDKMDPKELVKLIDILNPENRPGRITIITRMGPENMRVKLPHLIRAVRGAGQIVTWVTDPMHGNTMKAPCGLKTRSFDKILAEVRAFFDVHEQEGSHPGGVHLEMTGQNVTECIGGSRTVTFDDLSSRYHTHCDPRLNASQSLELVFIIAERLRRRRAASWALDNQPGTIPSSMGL
Chain of Brachypodium distachyon BdDHS1b, SEQ ID NO: 3, recombinant (I1H4W3 37-542): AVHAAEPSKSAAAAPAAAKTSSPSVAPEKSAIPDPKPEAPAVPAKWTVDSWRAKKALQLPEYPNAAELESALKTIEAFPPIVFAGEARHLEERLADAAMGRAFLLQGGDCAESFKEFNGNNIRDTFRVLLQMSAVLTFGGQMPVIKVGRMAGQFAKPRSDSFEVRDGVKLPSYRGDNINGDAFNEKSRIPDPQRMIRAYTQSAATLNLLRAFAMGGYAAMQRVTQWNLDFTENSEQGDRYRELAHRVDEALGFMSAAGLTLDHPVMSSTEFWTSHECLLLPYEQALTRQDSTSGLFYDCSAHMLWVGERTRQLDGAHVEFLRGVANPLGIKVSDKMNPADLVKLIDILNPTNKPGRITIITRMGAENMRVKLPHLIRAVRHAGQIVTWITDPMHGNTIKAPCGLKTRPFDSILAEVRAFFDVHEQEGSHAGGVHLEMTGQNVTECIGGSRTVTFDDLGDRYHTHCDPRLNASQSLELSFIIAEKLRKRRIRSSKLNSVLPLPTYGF
Chain of Sorghum bicolor SbDHS1a, SEQ ID NO: 9, recombinant (C5X2H5 46-540): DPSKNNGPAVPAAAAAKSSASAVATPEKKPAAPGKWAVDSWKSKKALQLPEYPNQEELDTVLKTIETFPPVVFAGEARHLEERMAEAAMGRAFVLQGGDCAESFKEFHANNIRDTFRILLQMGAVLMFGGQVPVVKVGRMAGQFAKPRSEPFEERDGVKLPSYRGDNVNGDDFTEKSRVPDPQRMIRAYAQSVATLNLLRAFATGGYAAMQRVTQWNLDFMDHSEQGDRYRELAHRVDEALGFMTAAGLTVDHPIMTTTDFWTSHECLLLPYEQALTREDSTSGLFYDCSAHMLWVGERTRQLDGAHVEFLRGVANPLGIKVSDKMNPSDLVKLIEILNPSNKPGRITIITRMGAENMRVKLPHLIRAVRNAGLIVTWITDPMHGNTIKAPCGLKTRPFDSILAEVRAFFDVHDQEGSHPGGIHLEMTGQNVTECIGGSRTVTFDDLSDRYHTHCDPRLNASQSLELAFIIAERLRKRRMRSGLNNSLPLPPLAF
T3 sequence (C5YJQ4 42-508): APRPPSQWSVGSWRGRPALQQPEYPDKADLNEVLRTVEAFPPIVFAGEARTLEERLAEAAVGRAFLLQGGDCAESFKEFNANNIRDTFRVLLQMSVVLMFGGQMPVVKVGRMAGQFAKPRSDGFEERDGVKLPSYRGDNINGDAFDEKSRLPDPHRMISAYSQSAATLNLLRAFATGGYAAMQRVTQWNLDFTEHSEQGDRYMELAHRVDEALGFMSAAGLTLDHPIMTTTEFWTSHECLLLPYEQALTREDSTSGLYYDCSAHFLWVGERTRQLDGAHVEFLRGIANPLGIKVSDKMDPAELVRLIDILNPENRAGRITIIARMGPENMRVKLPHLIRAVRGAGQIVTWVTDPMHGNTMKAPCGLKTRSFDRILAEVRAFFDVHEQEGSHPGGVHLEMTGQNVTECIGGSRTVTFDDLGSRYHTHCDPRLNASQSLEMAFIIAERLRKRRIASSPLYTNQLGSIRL
Chain of Sorghum bicolor SbDHS1b, SEQ ID NO: 11, recombinant (C5WXQ3 48-551): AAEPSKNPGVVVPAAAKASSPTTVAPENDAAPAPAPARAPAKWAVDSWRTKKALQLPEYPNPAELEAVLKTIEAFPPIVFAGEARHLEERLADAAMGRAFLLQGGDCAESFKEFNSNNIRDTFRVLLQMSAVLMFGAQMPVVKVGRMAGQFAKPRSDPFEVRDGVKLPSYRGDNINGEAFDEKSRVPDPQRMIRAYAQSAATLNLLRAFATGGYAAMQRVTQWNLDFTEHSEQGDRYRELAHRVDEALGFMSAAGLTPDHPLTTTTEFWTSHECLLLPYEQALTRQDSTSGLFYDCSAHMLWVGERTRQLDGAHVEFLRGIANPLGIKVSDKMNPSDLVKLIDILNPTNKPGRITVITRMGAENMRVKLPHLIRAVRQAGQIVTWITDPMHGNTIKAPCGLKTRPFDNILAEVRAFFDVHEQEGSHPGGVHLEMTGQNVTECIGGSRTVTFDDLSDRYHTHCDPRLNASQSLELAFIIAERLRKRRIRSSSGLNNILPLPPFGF
Chain of Arabidopsis thaliana AtDHS2 (Q00218 2-507): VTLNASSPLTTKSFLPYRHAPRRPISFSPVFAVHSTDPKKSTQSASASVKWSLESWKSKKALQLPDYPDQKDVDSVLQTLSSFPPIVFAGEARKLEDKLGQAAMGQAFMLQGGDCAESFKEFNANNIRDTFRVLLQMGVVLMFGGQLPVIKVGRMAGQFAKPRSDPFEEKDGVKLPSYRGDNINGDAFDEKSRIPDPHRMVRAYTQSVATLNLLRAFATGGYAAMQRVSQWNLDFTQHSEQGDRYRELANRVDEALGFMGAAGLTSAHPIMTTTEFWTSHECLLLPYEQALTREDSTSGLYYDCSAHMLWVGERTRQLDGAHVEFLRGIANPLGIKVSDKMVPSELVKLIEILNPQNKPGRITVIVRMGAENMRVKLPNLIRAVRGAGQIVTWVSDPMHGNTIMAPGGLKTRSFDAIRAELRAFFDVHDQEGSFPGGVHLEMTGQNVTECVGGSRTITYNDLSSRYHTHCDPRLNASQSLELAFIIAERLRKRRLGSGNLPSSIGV

On to `N[C@@H](Cc1ccccc1)C(=O)O` [Arogenate incubated with HCl], for which the “inhibition by hydrolyzed arogenate” value in [1] was “did not inhibit”; in test [1] (listed as Arogenate that is hydrolyzed to phenylalanine), “does not inhibit”; in [2] it was “does not inhibit”.
For `N[C@@H](CC1(C(=O)O)C=CC(O)C=C1)C(=O)O` (stereo partly shown) [arogenate], the kcat/Km in test [3] is 579600 ± 24300 M⁻¹ s⁻¹; in test [4] it was 337500 ± 19500 M⁻¹ s⁻¹. Besides, the IC50 was ~285 µM and 285 µM in test [5] (IC50 (arogenate), 1.5 mM PEP, 2 mM E4P); greater than 500 µM in [6] (read-out: IC50 (arogenate)); ~91 µM and 91 µM in [7] (1.5 mM PEP, 2 mM E4P, read-out: IC50 (arogenate)). Besides, the inhibition at 500 µM in test [5] (read-out: inhibition at 0.5 mM) is roughly 50%; in test [7] (effector 0.5 mM, read-out: inhibition at 0.5 mM), greater than 75%; in test [8] it was roughly 50%; in [10], roughly 40%. Moreover, the “inhibition by arogenate up to 2.5 mM” value in [6] (even up to 2.5 mM) was “not inhibited”. Moreover, the “mode of inhibition with respect to E4P” value in test [7] (FIG. 18) is “uncompetitive inhibition kinetics”. For the same molecule, the “mode of inhibition with respect to PEP” value in test [7] (FIG. 18) is “mixed inhibition mechanism”. The “effect at 0.5 mM” value in [9] is “no effect”.
